Reference: US20110212185A1, “WATER THAT EXPRESSES PATHOGEN-RESISTANCE GENES (PR GENE CLUSTERS) TO ENCODE PLANT IMMUNOPROTEINS, A METHOD OF PREVENTING PLANT DISEASES USING THE WATER, AND A DEVICE FOR PRODUCING THE WATER” (priority 2008, published 2011)

Experiments:
[1] = tested on: plant body or plant cells; conditions: supplied directly to plant body or plant cells; 'or more'; cited from earlier work
[2] = tested on: carp; conditions: data sheet of Hokho lateral-row Oryzemate granular wettable powder; cited from earlier work
[3] = CLA chemiluminescence measurement of superoxide anion radicals in water; type: physicochemical; conditions: KO2 marker in FIG. 4; extinguished within several milliseconds
Protocol: The measurement of the superoxide anion radicals in water is performed in the following manner. […] Further, timings for collecting samples are set to immediately before the starting of reaction, 15 minutes after the start of reaction, and 30 minutes after the starting of reaction. At respective timings, 500 μl of aqueous solution in the reservoir is sampled using a micropipette and is added to 500 μl of 25 mM phosphoric acid potassium buffer solution (pH7.0) to which CLA is preliminarily added (1:1 mixture, total: 1 ml) and CLA luminescence is measured for 5 minutes after dropping the solution. The intensity of luminescence is indicated by relative luminescence unit (hereinafter referred to as rlu). […] Further, KO2 solution obtained by dissolving KO2 (potassium superoxide) in an organic solvent is added to CLA solution thus preparing a calibration curve of superoxide anion by chemiluminescence dependent on CLA. Generally, a method which dissolves KO2 in crown-ether-based organic solution and uses the solution for the determination of superoxide is used. However, to allow the reaction with CLA in aqueous solution in a non-hydrophobic environment, dimethylsulfoxide (DMSO) is used as organic solvent. Using this method, CLA luminescence by adding KO2 solution is induced whereby the calibration curve of superoxide anion radicals is prepared.

| Molecule | concentration necessary to actually confirm the expression of the genes [1] | other results |
| --- | --- | --- |
| OO [hydrogen peroxide] | 2 to 10 mM | – |
| C=CCOC1=NS(=O)(=O)c2ccccc21 [probenazole] | – | LC50 value (48 hours) for carp [2]: 8 ppm |
| Potassium superoxide [KO2] | – | time for which emission of light is observed after dropping into water [3]: < 2 s |
| O=C(O)c1ccccc1O [salicylic acid] | 0.1 to 0.5 mM | – |
